Measurements reported in PubChem BioAssay (NCI).
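Assay format: 96-well plates, 48-hour exposure. The concentration for 50% growth inhibition is given as GI50. TGI: total growth inhibition.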

Experiments:
Test in all cases: inhibition of tumour cell growth, NCI panel, 48 h
HT29 colon = system: HT29 colon
SK-OV-3 ovarian = system: SK-OV-3 ovarian
UACC-257 melanoma = system: UACC-257 melanoma
MDA-MB-231 breast = system: MDA-MB-231 breast
T-47D breast = system: T-47D breast
HOP-62 NSCLC = system: HOP-62 NSCLC
KM12 colon = system: KM12 colon
RXF 393 renal = system: RXF 393 renal
OVCAR-4 ovarian = system: OVCAR-4 ovarian
NCI-H23 lung = system: NCI-H23 lung

Compound: COc1ccc2nc3cc(Cl)ccc3c(NCCCNCCC(C)O)c2c1 (stereo not drawn)
- GI50 (HT29 colon): 0.172 µM
- TGI (HT29 colon): 1.25 µM
- GI50 (SK-OV-3 ovarian): 0.465 µM
- TGI (SK-OV-3 ovarian): 2.62 µM
- GI50 (UACC-257 melanoma): 1.63 µM
- TGI (UACC-257 melanoma): 3.43 µM
- GI50 (MDA-MB-231 breast): 0.203 µM
- TGI (MDA-MB-231 breast): 1.37 µM
- GI50 (T-47D breast): 1.04 µM
- TGI (T-47D breast): 4.04 µM
- GI50 (HOP-62 NSCLC): 0.389 µM
- TGI (HOP-62 NSCLC): 2.35 µM
- GI50 (KM12 colon): 0.408 µM
- TGI (KM12 colon): 1.98 µM
- GI50 (RXF 393 renal): 0.414 µM
- TGI (RXF 393 renal): 1.74 µM
- GI50 (OVCAR-4 ovarian): 0.282 µM
- TGI (OVCAR-4 ovarian): 1.04 µM
- GI50 (NCI-H23 lung): 0.36 µM
- TGI (NCI-H23 lung): 2.1 µM

Compound: COc1ccccc1C#Cc1ccccc1C#CCCCCCC#Cc1ccccc1C#Cc1ccccc1OC
- GI50 (HT29 colon): 24.6 µM
- TGI (HT29 colon): > 100 µM
- GI50 (SK-OV-3 ovarian): > 100 µM
- TGI (SK-OV-3 ovarian): > 100 µM
- GI50 (UACC-257 melanoma): > 100 µM
- TGI (UACC-257 melanoma): > 100 µM
- GI50 (MDA-MB-231 breast): 60.3 µM
- TGI (MDA-MB-231 breast): > 100 µM
- GI50 (T-47D breast): 6.75 µM
- TGI (T-47D breast): > 100 µM
- GI50 (HOP-62 NSCLC): > 100 µM
- TGI (HOP-62 NSCLC): > 100 µM
- GI50 (KM12 colon): 75 µM
- TGI (KM12 colon): > 100 µM
- GI50 (RXF 393 renal): 26.6 µM
- TGI (RXF 393 renal): > 100 µM
- GI50 (OVCAR-4 ovarian): 13.7 µM
- TGI (OVCAR-4 ovarian): 84.4 µM
- GI50 (NCI-H23 lung): 43.9 µM
- TGI (NCI-H23 lung): > 100 µM

Compound: C=CC1CC12C(=O)C1OC2(C)C2C(=O)c3c(O)ccc(O)c3C(=O)C12 (stereo not drawn)
- GI50 (HT29 colon): 4.03 µM
- TGI (HT29 colon): 16 µM
- GI50 (SK-OV-3 ovarian): 11.9 µM
- TGI (SK-OV-3 ovarian): 41.2 µM
- GI50 (UACC-257 melanoma): 3.75 µM
- TGI (UACC-257 melanoma): 11.2 µM
- GI50 (MDA-MB-231 breast): 2.33 µM
- TGI (MDA-MB-231 breast): 7.38 µM
- GI50 (T-47D breast): 2.56 µM
- TGI (T-47D breast): 14.1 µM
- GI50 (HOP-62 NSCLC): 9.66 µM
- TGI (HOP-62 NSCLC): 25 µM
- GI50 (KM12 colon): 5.83 µM
- TGI (KM12 colon): 17.3 µM
- GI50 (RXF 393 renal): 2.11 µM
- TGI (RXF 393 renal): 5.3 µM
- GI50 (OVCAR-4 ovarian): 7.84 µM
- TGI (OVCAR-4 ovarian): 25.6 µM
- GI50 (NCI-H23 lung): 2.95 µM
- TGI (NCI-H23 lung): 8.01 µM

Compound: CC(=O)O/N=C1/C(c2c(O)[nH]c3cc(Br)ccc23)=Nc2ccccc21
- GI50 (HT29 colon): 1.84 µM
- TGI (HT29 colon): 3.65 µM
- GI50 (SK-OV-3 ovarian): 0.421 µM
- TGI (SK-OV-3 ovarian): 1.96 µM
- GI50 (UACC-257 melanoma): 2.26 µM
- TGI (UACC-257 melanoma): 4.38 µM
- GI50 (MDA-MB-231 breast): 1.53 µM
- TGI (MDA-MB-231 breast): 3.77 µM
- GI50 (T-47D breast): 2.59 µM
- TGI (T-47D breast): 7.82 µM
- GI50 (HOP-62 NSCLC): 2.05 µM
- TGI (HOP-62 NSCLC): 4.53 µM
- GI50 (KM12 colon): 0.398 µM
- TGI (KM12 colon): 1.91 µM
- GI50 (RXF 393 renal): 0.385 µM
- TGI (RXF 393 renal): 1.61 µM
- GI50 (OVCAR-4 ovarian): 1.6 µM
- TGI (OVCAR-4 ovarian): 3.93 µM
- GI50 (NCI-H23 lung): 1.63 µM
- TGI (NCI-H23 lung): 3.62 µM

Compound: O=C(CCl)N1c2ccccc2Sc2ccc3ccccc3c21
- GI50 (HT29 colon): 1.28 µM
- TGI (HT29 colon): 4.58 µM
- GI50 (SK-OV-3 ovarian): 1.79 µM
- TGI (SK-OV-3 ovarian): 3.18 µM
- GI50 (UACC-257 melanoma): 1.48 µM
- TGI (UACC-257 melanoma): 2.87 µM
- GI50 (MDA-MB-231 breast): 1.64 µM
- TGI (MDA-MB-231 breast): 3.14 µM
- GI50 (T-47D breast): 1.66 µM
- TGI (T-47D breast): 3.69 µM
- GI50 (HOP-62 NSCLC): 1.63 µM
- TGI (HOP-62 NSCLC): 3.05 µM
- GI50 (KM12 colon): 1.82 µM
- TGI (KM12 colon): 3.35 µM
- GI50 (RXF 393 renal): 1.49 µM
- TGI (RXF 393 renal): 2.83 µM
- GI50 (OVCAR-4 ovarian): 0.659 µM
- TGI (OVCAR-4 ovarian): 2.9 µM
- GI50 (NCI-H23 lung): 1.18 µM
- TGI (NCI-H23 lung): 2.54 µM

Compound: Cc1c2c[n+](C(C)C)ccc2c(C)c2c1[nH]c1ccccc12
- GI50 (HT29 colon): 3.15 µM
- TGI (HT29 colon): 58.8 µM
- GI50 (SK-OV-3 ovarian): 3.19 µM
- TGI (SK-OV-3 ovarian): 39.8 µM
- GI50 (MDA-MB-231 breast): 4.86 µM
- TGI (MDA-MB-231 breast): 43 µM
- GI50 (T-47D breast): 1.48 µM
- TGI (T-47D breast): 6.64 µM
- GI50 (HOP-62 NSCLC): 2.35 µM
- TGI (HOP-62 NSCLC): 36.1 µM
- GI50 (KM12 colon): 1.14 µM
- TGI (KM12 colon): 10.9 µM
- GI50 (RXF 393 renal): 6.19 µM
- TGI (RXF 393 renal): > 100 µM
- GI50 (OVCAR-4 ovarian): 2.61 µM
- TGI (OVCAR-4 ovarian): 15.4 µM
- GI50 (NCI-H23 lung): 1.75 µM
- TGI (NCI-H23 lung): 15.7 µM
